# Laboratory results as given in the supplement of paper PMC10307832.
# Columns and labels:
# Test in all cases: relative viability (nuclei count vs DMSO), 5 days (fraction); higher = more cells survive
# BEN = tested on: BEN
# Summary of the method: (§1)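 Lung cancer cell lines in 1536-well plates got either a single drug or a fixed anchor-drug dose together with five library-drug doses (not always all listed) in √10 steps, by pin tool, on the day after seeding. Nuclei were counted after 5 days, and relative viability is the treated-to-vehicle ratio of nuclei counts. Values are medians of duplicate plates.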
# CAL-12T = tested on: CAL-12T
# Summary of the method: as §1
# COR-L23 = tested on: COR-L23
# Summary of the method: as §1
# HCC-44 = tested on: HCC-44
# Summary of the method: as §1
# LU99A = tested on: LU99A
# Summary of the method: as §1
# LXF-289 = tested on: LXF-289
# Summary of the method: as §1
# NCI-H1355 = tested on: NCI-H1355
# Summary of the method: as §1
# NCI-H1437 = tested on: NCI-H1437
# Summary of the method: as §1
# NCI-H1650 = tested on: NCI-H1650
# Summary of the method: as §1
# NCI-H1651 = tested on: NCI-H1651
# Summary of the method: as §1
# NCI-H1666 = tested on: NCI-H1666
# Summary of the method: as §1
# NCI-H1755 = tested on: NCI-H1755
# Summary of the method: as §1
# NCI-H1792 = tested on: NCI-H1792
# Summary of the method: as §1
# NCI-H2085 = tested on: NCI-H2085
# Summary of the method: as §1
# NCI-H2087 = tested on: NCI-H2087
# Summary of the method: as §1
# NCI-H2170 = tested on: NCI-H2170
# Summary of the method: as §1
# NCI-H460 = tested on: NCI-H460
# Summary of the method: as §1
# NCI-H520 = tested on: NCI-H520
# Summary of the method: as §1
# PC-14 = tested on: PC-14
# Summary of the method: as §1
# SK-MES-1 = tested on: SK-MES-1
# Summary of the method: as §1
structure (smiles),measurement,setting,value
Cc1cn(-c2cc(NC(=O)c3ccc(C)c(Nc4nccc(-c5cccnc5)n4)c3)cc(C(F)(F)F)c2)cn1 [Nilotinib] + CC1(C)CCC(c2ccc(Cl)cc2)=C(CN2CCN(c3ccc(C(=O)NS(=O)(=O)c4ccc(N[C@H](CCN5CCOCC5)CSc5ccccc5)c(S(=O)(=O)C(F)(F)F)c4)cc3)CC2)C1 [Navitoclax] (partner 0.5 µM),relative viability,BEN; first compound 0.001 µM,0.0648
same,relative viability,BEN; first compound 0.003162 µM,0.0542
same,relative viability,BEN; first compound 0.01 µM,0.0592
same,relative viability,BEN; first compound 0.1 µM,0.0654
same,relative viability,CAL-12T; first compound 0.003162 µM,1.17
same,relative viability,CAL-12T; first compound 0.01 µM,1.17
same,relative viability,CAL-12T; first compound 0.03162 µM,1.02
same,relative viability,CAL-12T; first compound 0.1 µM,0.956
same,relative viability,COR-L23; first compound 0.001 µM,0.835
same,relative viability,COR-L23; first compound 0.003162 µM,1.17
same,relative viability,COR-L23; first compound 0.01 µM,1.18
same,relative viability,COR-L23; first compound 0.03162 µM,0.953
same,relative viability,COR-L23; first compound 0.1 µM,0.864
same,relative viability,HCC-44; first compound 0.001 µM,0.845
same,relative viability,HCC-44; first compound 0.003162 µM,1.22
same,relative viability,HCC-44; first compound 0.01 µM,1.39
same,relative viability,HCC-44; first compound 0.03162 µM,0.844
same,relative viability,HCC-44; first compound 0.1 µM,0.999
same,relative viability,LU99A; first compound 0.001 µM,0.761
same,relative viability,LU99A; first compound 0.003162 µM,0.904
same,relative viability,LU99A; first compound 0.01 µM,0.985
same,relative viability,LU99A; first compound 0.03162 µM,0.76
same,relative viability,LU99A; first compound 0.1 µM,0.479
same,relative viability,LXF-289; first compound 0.001 µM,0.904
same,relative viability,LXF-289; first compound 0.003162 µM,1.09
same,relative viability,LXF-289; first compound 0.01 µM,1.05
same,relative viability,LXF-289; first compound 0.03162 µM,0.855
same,relative viability,LXF-289; first compound 0.1 µM,0.878
same,relative viability,NCI-H1355; first compound 0.001 µM,1
same,relative viability,NCI-H1355; first compound 0.003162 µM,1.14
same,relative viability,NCI-H1355; first compound 0.01 µM,1.12
same,relative viability,NCI-H1355; first compound 0.03162 µM,0.928
same,relative viability,NCI-H1355; first compound 0.1 µM,0.893
same,relative viability,NCI-H1437; first compound 0.001 µM,1.02
same,relative viability,NCI-H1437; first compound 0.003162 µM,1.34
same,relative viability,NCI-H1437; first compound 0.01 µM,1.15
same,relative viability,NCI-H1437; first compound 0.03162 µM,0.766
same,relative viability,NCI-H1437; first compound 0.1 µM,0.925
same,relative viability,NCI-H1650; first compound 0.001 µM,1.15
same,relative viability,NCI-H1650; first compound 0.003162 µM,1.26
same,relative viability,NCI-H1650; first compound 0.01 µM,1.45
same,relative viability,NCI-H1650; first compound 0.03162 µM,0.99
same,relative viability,NCI-H1650; first compound 0.1 µM,1.11
same,relative viability,NCI-H1651; first compound 0.001 µM,1.05
same,relative viability,NCI-H1651; first compound 0.003162 µM,1.56
same,relative viability,NCI-H1651; first compound 0.01 µM,1.43
same,relative viability,NCI-H1651; first compound 0.03162 µM,0.782
same,relative viability,NCI-H1651; first compound 0.1 µM,1.21
same,relative viability,NCI-H1666; first compound 0.001 µM,0.994
same,relative viability,NCI-H1666; first compound 0.003162 µM,1.24
same,relative viability,NCI-H1666; first compound 0.01 µM,0.98
same,relative viability,NCI-H1666; first compound 0.03162 µM,0.895
same,relative viability,NCI-H1666; first compound 0.1 µM,0.759
same,relative viability,NCI-H1755; first compound 0.001 µM,0.969
same,relative viability,NCI-H1755; first compound 0.003162 µM,1.1
same,relative viability,NCI-H1755; first compound 0.01 µM,1.08
same,relative viability,NCI-H1755; first compound 0.03162 µM,0.83
same,relative viability,NCI-H1755; first compound 0.1 µM,0.93
same,relative viability,NCI-H1792; first compound 0.001 µM,0.523
same,relative viability,NCI-H1792; first compound 0.01 µM,0.907
same,relative viability,NCI-H1792; first compound 0.1 µM,0.794
same,relative viability,NCI-H2085; first compound 0.001 µM,1.12
same,relative viability,NCI-H2085; first compound 0.003162 µM,1.19
same,relative viability,NCI-H2085; first compound 0.01 µM,1.38
same,relative viability,NCI-H2085; first compound 0.03162 µM,0.957
same,relative viability,NCI-H2085; first compound 0.1 µM,1.03
same,relative viability,NCI-H2087; first compound 0.001 µM,0.795
same,relative viability,NCI-H2087; first compound 0.003162 µM,0.86
same,relative viability,NCI-H2087; first compound 0.01 µM,0.997
same,relative viability,NCI-H2087; first compound 0.03162 µM,0.93
same,relative viability,NCI-H2087; first compound 0.1 µM,0.734
same,relative viability,NCI-H2170; first compound 0.001 µM,0.483
same,relative viability,NCI-H2170; first compound 0.003162 µM,0.64
same,relative viability,NCI-H2170; first compound 0.01 µM,0.716
same,relative viability,NCI-H2170; first compound 0.03162 µM,0.56
same,relative viability,NCI-H2170; first compound 0.1 µM,0.771
same,relative viability,NCI-H460; first compound 0.001 µM,1.02
same,relative viability,NCI-H460; first compound 0.003162 µM,1.48
same,relative viability,NCI-H460; first compound 0.01 µM,1.76
same,relative viability,NCI-H460; first compound 0.03162 µM,0.628
same,relative viability,NCI-H460; first compound 0.1 µM,0.975
same,relative viability,NCI-H520; first compound 0.001 µM,1.13
same,relative viability,NCI-H520; first compound 0.01 µM,1.11
same,relative viability,NCI-H520; first compound 0.03162 µM,0.96
same,relative viability,NCI-H520; first compound 0.1 µM,1.15
same,relative viability,PC-14; first compound 0.003162 µM,1.09
same,relative viability,PC-14; first compound 0.01 µM,1.19
same,relative viability,PC-14; first compound 0.03162 µM,0.882
same,relative viability,PC-14; first compound 0.1 µM,1.07
same,relative viability,SK-MES-1; first compound 0.001 µM,1.17
same,relative viability,SK-MES-1; first compound 0.003162 µM,1.5
same,relative viability,SK-MES-1; first compound 0.01 µM,1.61
same,relative viability,SK-MES-1; first compound 0.03162 µM,1.1
same,relative viability,SK-MES-1; first compound 0.1 µM,1.29
